Key:
[1] = tested on: C[C@@H](O)[C@H]1C(=O)N2C(C(=O)O)=C(S[C@@H]3CN[C@H](C(=O)N(C)C)C3)C[C@]12C; assay: Steady-state kinetics of hydrolysis by BlaMab; format: biochemical, Mycobacterium abscessus; details: other: best-fit value (95% confidence interval), MES buffer pH 6.4, room temperature
Mab ATCC 19977 [2] = assay: MIC testing against Mab ATCC 19977, single agent and combinations; format: cell-based, Mycobacterium abscessus
Method: MICs were determined in duplicate following Clinical Laboratory Standards Institute ([52]) guidelines using Middlebrook 7H9 broth supplemented with 10% (vol/vol) oleic acid-albumin-dextrose-catalase (OADC) and 0.05% (vol/vol) Tween 80, with an inoculum of 5 × 10⁵ CFU/mL. MIC testing of two C5α-substituted carbapenems was conducted both individually and in combination with cephalosporins (cefuroxime and ceftaroline), penicillins (amoxicillin), or BLIs (avibactam or durlobactam + sulbactam). Avibactam, durlobactam, cefuroxime, ceftaroline, and amoxicillin were fixed at concentrations of 4, 1, 2, 4, and 4 mg/L, respectively. […] The MIC was defined as the lowest antibiotic concentration that inhibited visible bacterial growth following 48 h of incubation at 30°C.

[3] = Thermal stability in 7H9 broth at 30°C; details: for Degradation percentage: 24 h
Method: The stability of the two compounds in 7H9 broth was assessed at 30°C at drug concentrations of 10, 50, and 100 mg/L, with each condition tested in triplicate. Absorbance at 240 nm was measured every 2 h over a 24 h period using a BioTek Synergy2 multimode reader, with data analyzed via Gen5 software to monitor degradation or changes in stability. To evaluate the impact of thermal instability, MIC tests were performed using Mab ATCC 19977. Compounds were tested at time points of 0 h (no incubation) and 6, 24, and 48 h of incubation at 30°C. Imipenem and meropenem, known to be thermally unstable β-lactams, were included as positive controls. The MIC results were recorded after 48 h of incubation. Detailed MIC testing protocols were identical to those described below.

Mab ATCC 19977 [4] = assay: MIC testing with drugs pre-incubated in 7H9 broth (effect of drug instability); format: cell-based, Mycobacterium abscessus; details: for MIC: Mycobacteroides abscessus, ATCC19977
Method: MICs were determined in duplicate following Clinical Laboratory Standards Institute ([52]) guidelines using Middlebrook 7H9 broth supplemented with 10% (vol/vol) oleic acid-albumin-dextrose-catalase (OADC) and 0.05% (vol/vol) Tween 80, with an inoculum of 5 × 10⁵ CFU/mL. MIC testing of two C5α-substituted carbapenems was conducted both individually and in combination with cephalosporins (cefuroxime and ceftaroline), penicillins (amoxicillin), or BLIs (avibactam or durlobactam + sulbactam). Avibactam, durlobactam, cefuroxime, ceftaroline, and amoxicillin were fixed at concentrations of 4, 1, 2, 4, and 4 mg/L, respectively. Amoxicillin was combined with 4 mg/L avibactam, as it is highly susceptible to hydrolysis by BlaMab ([12], [15], [25]). The MIC was defined as the lowest antibiotic concentration that inhibited visible bacterial growth following 48 h of incubation at 30°C.

[5] = tested on: Mab strain ATCC 19977 and three clinical isolates (Mab122, Mab686, and UH01); assay: Static concentration time-kill (SCTK) assay; format: cell-based, Mycobacterium abscessus; details: imipenem alone (Fig. S1)
Method: SCTK studies were conducted over 5 days in Middlebrook 7H9 broth supplemented with 10% (vol/vol) OADC, 0.2% (vol/vol) glycerol, and 0.05% (vol/vol) Tween 80 in duplicate. The efficacy of JDB/NA-1-157 and JDB/NA-208 was evaluated using Mab strain ATCC 19977 and three clinical isolates (Mab122, Mab686, and UH01) at an initial inoculum of 10^5.5–10^6.3 CFU/mL. […] Bacterial killing was assessed across a wide range of concentrations for JDB/NA-1-157 and JDB/NA-1-208 individually (0.0625–64.0 mg/L).
For the combination study, the concentrations of JDB/NA-1-157 and JDB/NA-1-208 were selected based on MIC results and time-killing profiles of the single-drug study, while the concentrations of other β-lactams and BLIs were chosen based on clinically relevant levels, determined from the predicted average unbound steady-state concentrations (fCss,avg) in plasma at clinically relevant doses ([27]). The drug concentrations used were JDB/NA-1-157, 1 mg/L; JDB/NA-1-208, 8 mg/L; imipenem, 12 mg/L; ceftaroline, 8 mg/L; cefuroxime, 8 mg/L; amoxicillin, 2 mg/L; avibactam, 4 mg/L; durlobactam, 12 mg/L; amikacin, 12 mg/L; clarithromycin, 0.3 mg/L; and cefoxitin, 7 mg/L. The SOC regimen was included for comparison of efficacy. On day 3, the broth was replaced with fresh broth containing the corresponding drug concentrations. For viable cell counts, 100 µL of undiluted or appropriately diluted samples was subcultured on Middlebrook 7H10 agar plates supplemented with 1% (vol/vol) OADC, 0.2% glycerol, and 0.05% (vol/vol) Tween 80. All samples were washed twice with sterile 0.9% saline prior to serial dilution or plating.

PBP B = PBP B (Mycobacteroides abscessus, UniProt B1MP31); assay: Apparent inhibition constant (nitrocefin, Dixon plot); format: biochemical; details: read-out: Ki,app (converted)
Chain of PBP B (B1MP31 entry or part of it): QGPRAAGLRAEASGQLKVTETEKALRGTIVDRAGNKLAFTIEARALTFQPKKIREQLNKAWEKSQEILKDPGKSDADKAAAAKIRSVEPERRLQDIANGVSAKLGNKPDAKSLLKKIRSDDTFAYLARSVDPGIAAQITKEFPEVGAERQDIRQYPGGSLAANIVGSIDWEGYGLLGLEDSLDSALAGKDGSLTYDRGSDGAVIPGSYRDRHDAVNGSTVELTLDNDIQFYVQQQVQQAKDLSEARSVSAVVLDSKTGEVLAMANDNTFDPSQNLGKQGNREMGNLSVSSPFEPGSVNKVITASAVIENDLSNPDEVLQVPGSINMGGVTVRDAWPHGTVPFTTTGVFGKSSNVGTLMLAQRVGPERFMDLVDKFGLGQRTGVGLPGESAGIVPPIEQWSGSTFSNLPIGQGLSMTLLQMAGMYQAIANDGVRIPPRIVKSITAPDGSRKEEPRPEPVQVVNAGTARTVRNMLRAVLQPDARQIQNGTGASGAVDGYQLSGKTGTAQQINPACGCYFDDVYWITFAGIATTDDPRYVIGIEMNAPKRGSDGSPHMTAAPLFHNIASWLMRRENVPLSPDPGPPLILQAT
Method: (§1) Steady-state kinetic studies with JDB/NA-1-157 and JDB/NA-1-208 were performed using purified LDTs and PBPs, including LDT1–5, PBP-B, PBP-lipo, and D,D-carboxypeptidase. The assays were conducted on a BioTek Synergy2 multimode reader equipped with Gen5 software. To determine the Michaelis constant (Km^NCF) for each LDT and PBP, a wide range of NCF concentrations was tested, while the enzyme concentrations were fixed. Absorbance changes at 482 nm were monitored over 10 min. Steady-state kinetic parameters (Vmax and Km) were derived by fitting the experimental data to the Henri–Michaelis–Menten equation using nonlinear least-squares regression in GraphPad Prism version 9. The reaction velocity (v) at a given substrate concentration ([S]) was calculated using equation 2: […]
(§2) The apparent inhibition constants (Ki,app) for JDB/NA-1-157 and JDB/NA-1-208 were determined under the following conditions: an NCF concentration of 5 × Km, fixed concentrations of LDT or PBP enzymes, and varying concentrations of JDB/NA-1-157 and JDB/NA-1-208. Absorbance changes at 482 nm were monitored over a 30 min period for each inhibitor concentration. The data were linearized using a Dixon plot, which involves plotting the reciprocal of the absorbance change (1/ΔA) against the concentrations of JDB/NA-1-157 or JDB/NA-1-208. Apparent Ki,app values were derived from the intersection points on the Dixon plot and were subsequently corrected for substrate concentration and enzyme affinity using equation 3:
(§3) (3) Ki,app=observed Ki,app/1+[NCF]/Km NCF.

PBP-lipo = target: T1, PBP-lipo (Mycobacteroides abscessus, UniProt B1MDC3); assay: as above; format: biochemical; details: Ki,app
T1 construct: made in house; host or cells: Escherichia coli BL21 (DE3)
T1 sequence (B1MDC3 entry or part of it): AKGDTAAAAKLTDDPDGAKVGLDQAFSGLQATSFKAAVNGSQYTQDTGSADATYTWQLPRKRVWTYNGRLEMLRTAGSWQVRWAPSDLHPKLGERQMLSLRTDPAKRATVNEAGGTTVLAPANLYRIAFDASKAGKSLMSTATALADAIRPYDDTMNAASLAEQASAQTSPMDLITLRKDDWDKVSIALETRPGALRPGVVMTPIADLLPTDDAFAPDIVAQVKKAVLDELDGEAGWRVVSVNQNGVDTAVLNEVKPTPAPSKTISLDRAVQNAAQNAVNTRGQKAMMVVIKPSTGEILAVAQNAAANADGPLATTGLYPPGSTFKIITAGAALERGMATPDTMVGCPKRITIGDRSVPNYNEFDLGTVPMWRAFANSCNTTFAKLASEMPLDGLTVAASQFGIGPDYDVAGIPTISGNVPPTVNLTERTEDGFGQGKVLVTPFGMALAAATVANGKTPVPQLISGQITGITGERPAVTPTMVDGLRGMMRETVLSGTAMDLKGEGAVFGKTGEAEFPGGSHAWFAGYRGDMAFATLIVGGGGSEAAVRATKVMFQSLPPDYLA
Method: as §1, §2, §3

LDT5 = LDT5 (Mycobacteroides abscessus, UniProt B1MHQ4); assay: as above; format: biochemical, Mycobacterium abscessus; details: read-out: Ki,app
Chain of LDT5 (B1MHQ4 entry or part of it): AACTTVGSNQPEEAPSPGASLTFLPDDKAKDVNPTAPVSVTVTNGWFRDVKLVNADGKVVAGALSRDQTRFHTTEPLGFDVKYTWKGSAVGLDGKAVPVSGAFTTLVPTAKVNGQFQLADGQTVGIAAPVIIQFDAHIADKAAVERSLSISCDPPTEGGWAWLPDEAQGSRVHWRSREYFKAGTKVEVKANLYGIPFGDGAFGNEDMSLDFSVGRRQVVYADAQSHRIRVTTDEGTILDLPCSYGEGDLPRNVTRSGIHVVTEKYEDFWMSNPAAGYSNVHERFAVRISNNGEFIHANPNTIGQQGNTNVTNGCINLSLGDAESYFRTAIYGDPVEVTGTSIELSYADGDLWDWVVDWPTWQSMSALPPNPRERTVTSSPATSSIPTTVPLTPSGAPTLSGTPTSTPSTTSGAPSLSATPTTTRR
Method: as §1, §2, §3

PonA2 = PonA2 (Mycobacteroides abscessus, UniProt B1MFV7); assay: as above; format: biochemical, Mycobacterium abscessus; details: Ki,app
Chain of PonA2 (B1MFV7 entry or part of it): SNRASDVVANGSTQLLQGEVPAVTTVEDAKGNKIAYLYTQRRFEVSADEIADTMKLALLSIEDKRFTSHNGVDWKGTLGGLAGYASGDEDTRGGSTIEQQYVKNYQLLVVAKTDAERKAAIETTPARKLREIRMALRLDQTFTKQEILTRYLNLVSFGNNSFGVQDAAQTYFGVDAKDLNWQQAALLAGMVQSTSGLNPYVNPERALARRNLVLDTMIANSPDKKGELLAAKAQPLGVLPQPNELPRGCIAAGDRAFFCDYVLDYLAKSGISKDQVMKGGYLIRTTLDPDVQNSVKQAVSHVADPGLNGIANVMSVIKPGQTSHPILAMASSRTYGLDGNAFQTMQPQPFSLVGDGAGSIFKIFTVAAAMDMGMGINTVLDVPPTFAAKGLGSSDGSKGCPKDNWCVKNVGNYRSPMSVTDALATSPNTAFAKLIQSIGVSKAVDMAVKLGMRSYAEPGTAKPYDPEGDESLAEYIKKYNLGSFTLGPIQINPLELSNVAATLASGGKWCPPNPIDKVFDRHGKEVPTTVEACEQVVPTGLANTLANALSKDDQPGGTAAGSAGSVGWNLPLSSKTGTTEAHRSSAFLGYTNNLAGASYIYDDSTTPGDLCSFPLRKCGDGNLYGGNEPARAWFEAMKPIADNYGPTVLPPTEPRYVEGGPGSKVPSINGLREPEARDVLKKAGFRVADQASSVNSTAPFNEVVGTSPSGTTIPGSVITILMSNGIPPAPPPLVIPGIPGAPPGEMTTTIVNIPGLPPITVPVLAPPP
Method: as §1, §2, §3

LDT1 = LDT1 (Mycobacteroides abscessus, UniProt B1MDC1); assay: as above; format: biochemical, Mycobacterium abscessus; details: Ki,app
Chain of LDT1 (B1MDC1 entry or part of it): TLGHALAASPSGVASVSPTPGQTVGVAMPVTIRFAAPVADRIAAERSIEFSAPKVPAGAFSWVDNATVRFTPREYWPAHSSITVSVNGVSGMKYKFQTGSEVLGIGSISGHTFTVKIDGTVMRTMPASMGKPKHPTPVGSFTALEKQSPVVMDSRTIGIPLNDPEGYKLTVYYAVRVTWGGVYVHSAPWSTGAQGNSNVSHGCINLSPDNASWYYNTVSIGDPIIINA
Method: as §1, §2, §3

LDT2 = LDT2 (Mycobacteroides abscessus, UniProt B1MMQ4); assay: as above; format: biochemical, Mycobacterium abscessus; details: Ki,app
Chain of LDT2 (B1MMQ4 entry or part of it): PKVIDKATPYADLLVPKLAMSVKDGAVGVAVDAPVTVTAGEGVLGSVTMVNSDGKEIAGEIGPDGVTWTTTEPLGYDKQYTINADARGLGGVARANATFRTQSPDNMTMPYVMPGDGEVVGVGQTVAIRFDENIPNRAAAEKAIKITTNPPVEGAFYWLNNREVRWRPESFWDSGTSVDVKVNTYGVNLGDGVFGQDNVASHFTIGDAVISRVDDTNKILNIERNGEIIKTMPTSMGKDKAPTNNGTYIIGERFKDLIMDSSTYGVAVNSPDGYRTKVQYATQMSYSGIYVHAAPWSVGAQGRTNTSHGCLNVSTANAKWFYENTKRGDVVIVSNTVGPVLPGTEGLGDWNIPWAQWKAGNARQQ
Method: as §1, §2, §3

[6] = Mycobacteroides abscessus, ATCC19977, 48 h, alone (single agent), read-out: MIC
[7] = drug incubated 6 h in 7H9 broth at 30°C
[8] = drug incubated 24 h in 7H9 broth at 30°C
[9] = drug incubated 48 h in 7H9 broth at 30°C

BlaMab (Mycobacteroides abscessus ATCC 19977)
Km [1]: 9.054 (3.677–17.50) µM
kcat [1]: 0.03 s⁻¹
kcat/Km [1]: 3000 M⁻¹ s⁻¹

CC1=C[C@@H]2CN(C(=O)N2OS(=O)(=O)O)[C@@H]1C(N)=O [DUR, durlobactam, reference compound]
MIC (Mab ATCC 19977 [2]; [6]): 8 µg/mL

CO/N=C(\C(=O)N[C@@H]1C(=O)N2C(C(=O)O)=C(COC(N)=O)CS[C@H]12)c1ccco1 [CXM, cefuroxime, reference compound]
MIC (Mab ATCC 19977 [2]; [6]): 4 µg/mL

NC(=O)[C@@H]1CC[C@@H]2CN1C(=O)N2OS(=O)(=O)O [AVI, avibactam, reference compound]
MIC (Mab ATCC 19977 [2]; [6]): > 128 µg/mL

CCO/N=C(\C(=O)N[C@@H]1C(=O)N2C(C(=O)[O-])=C(Sc3nc(-c4cc[n+](C)cc4)cs3)CS[C@H]12)c1nsc(N)n1 [CFT, ceftaroline, reference compound]
MIC (Mab ATCC 19977 [2]; [6]): 16 µg/mL

C[C@@H](O)[C@H]1C(=O)N2C(C(=O)O)=C(SCCN=CN)C[C@H]12 [IPM, imipenem]
additional degradation by 24 h [3]: approximately 25%
degradation within the first 6 h [3]: approximately 25%
half-life ([3]; 7H9 broth): 10 h
Degradation percentage ([3]; 10 mg/L): 67.8%
Degradation percentage ([3]; 50 mg/L): 51.4%
Degradation percentage ([3]; 100 mg/L): 49.3%
MIC (Mab ATCC 19977 [4]; [7]): 1 µg/mL
MIC (Mab ATCC 19977 [4]; [8]): 32 µg/mL
MIC (Mab ATCC 19977 [4]; [9]): > 64 µg/mL
MIC (Mab ATCC 19977 [4]; no incubation of drug): 1 µg/mL
MIC fold increase after 24 h incubation (Mab ATCC 19977 [4]; drug incubated 24 h): 32 fold
MIC fold increase after 48 h incubation (Mab ATCC 19977 [4]; drug incubated 48 h): > 64 fold
log10 reduction in bacterial load [5]: ~1.5 log10
Ki (PBP B): 1470 nM
Ki (PBP-lipo): 1840 nM
Ki (LDT5): 100000 nM
Ki (PonA2): 3140 nM

CC1(C)S[C@@H]2[C@H](NC(=O)[C@H](N)c3ccc(O)cc3)C(=O)N2[C@H]1C(=O)O [AMX, amoxicillin, reference compound]
MIC (Mab ATCC 19977 [2]; [6]): 128 µg/mL
MIC (Mab ATCC 19977 [2]; no carbapenem, with AVI): 32 µg/mL

C[C@@H](O)[C@H]1C(=O)N2C(C(=O)O)=C(S[C@@H]3CN[C@H](C(=O)N(C)C)C3)[C@H](C)[C@H]12 [MEM, meropenem]
Degradation percentage ([3]; 10 mg/L): 11.7%
Degradation percentage ([3]; 50 mg/L): 15.8%
Degradation percentage ([3]; 100 mg/L): 16.1%
MIC (Mab ATCC 19977 [4]; [7]): 4 µg/mL
MIC (Mab ATCC 19977 [4]; [8]): 16 µg/mL
MIC (Mab ATCC 19977 [4]; [9]): 16 µg/mL
MIC (Mab ATCC 19977 [4]; no incubation of drug): 4 µg/mL
MIC rise after 24 and 48 h incubation vs nonincubated (Mab ATCC 19977 [4]; drug incubated 24 and 48 h): fourfold
Ki (PBP B): 965 nM
Ki (LDT1): 206 nM
Ki (LDT2): 31.3 nM
Ki (PonA2): 143 nM

Reference: article PMC12326981, “Novel C5α-substituted carbapenems enhance Mycobacterium abscessus killing via selective target binding and reduced hydrolysis by BlaMab” (Antimicrobial Agents and Chemotherapy, 2025)
